This is an account of results in patent US9211270B2, “Method for improving the efficacy of curcuminoids and their analogs” (ASAC Compañía de Biotecnología e Investigación, S.A., priority 2007, dated 2015).

Assay [1] has as its system A431 cells (human epidermal carcinoma). Kind of assay: Inhibition of tumor growth in mice, intraperitoneal Curcumin with visible light. To be noted: day 12, Curcumin 50 mg/kg per day i.p. + visible light 5500 lx 20 minutes. It counts as in vivo, athymic nude mice (NMRI).
Procedure: 5*10^6 A431 cells (human epidermal carcinoma) were injected subcutaneously into the left and right flanks of athymic nude mice (NMRI) (5-6 weeks old, 20-24 g). The mice were fed in pathogen-free conditions. The animals were fed ad libitum with sterilized food. The animals were sterilized with ketamine/xylazine.
The irradiation device was 10 Phillips TLK 40W/03 lamps (60 cm length*4 cm diameter), at a distance of 45 cm. The emission range of the lamps was between 400-550 nm with a maximum at 420 nm.
Tumor size was measured initially and after 10-12 days; afterwards tumor volumes and weights were determined twice a week. At the end of the experiment (29 days), the animals were anesthetized and sacrificed.
The test system of another assay is psoriasis. To be noted: 12 week studies; cited from earlier work.

In the case of `COc1cc(/C=C/C(=O)CC(=O)/C=C/c2ccc(O)c(OC)c2)ccc1O` [Curcumin, curcumin (diferuloylmethane)], the “reduction of average tumor volume in comparison to control mice” value in assay [1] was 70%. Regarding Efalizumab, in the assay with psoriasis, the “patients who reached a score of PASI-75” value is 22-35%.
